Measurements reported in patent publication US6716833B2, “Acetylenic α-amino acid-based sulfonamide hydroxamic acid tace inhibitors” (priority 1999, dated 2004).

molecular target: TNF-α converting enzyme (TACE) (Homo sapiens, UniProt P78536); test: TACE inhibition (fluorescent peptidyl substrate); type: biochemical; conditions: 1 uM; Table 15
Sequence (P78536 215-824, species assumed): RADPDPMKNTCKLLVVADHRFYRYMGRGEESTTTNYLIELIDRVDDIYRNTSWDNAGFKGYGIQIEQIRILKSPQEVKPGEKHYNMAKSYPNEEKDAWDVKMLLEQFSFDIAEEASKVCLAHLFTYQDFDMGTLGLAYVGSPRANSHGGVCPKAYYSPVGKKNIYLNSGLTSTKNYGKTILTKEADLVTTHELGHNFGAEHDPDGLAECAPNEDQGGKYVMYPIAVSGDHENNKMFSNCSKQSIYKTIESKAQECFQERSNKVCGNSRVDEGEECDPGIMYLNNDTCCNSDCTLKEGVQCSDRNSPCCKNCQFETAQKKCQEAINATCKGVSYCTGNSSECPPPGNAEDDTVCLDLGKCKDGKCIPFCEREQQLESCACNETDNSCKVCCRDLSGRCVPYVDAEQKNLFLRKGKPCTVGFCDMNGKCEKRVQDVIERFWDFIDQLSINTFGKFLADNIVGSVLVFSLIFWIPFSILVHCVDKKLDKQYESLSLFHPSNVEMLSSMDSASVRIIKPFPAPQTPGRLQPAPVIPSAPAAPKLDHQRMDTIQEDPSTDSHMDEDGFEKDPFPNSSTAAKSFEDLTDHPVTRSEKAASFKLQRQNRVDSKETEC

| SMILES | % Inhibition at 1 uM (In Vitro Inhibition of TACE) [%] |
| --- | --- |
| CC#CCOc1ccc(S(=O)(=O)N[C@@H](CC)C(=O)NO)cc1 [Example 63] | 47.6 |
| CC#CCOc1ccc(S(=O)(=O)NC(CC(N)=O)C(=O)NO)cc1 (stereo not drawn) [Example 66] | 45.6 |
| CC#CCOc1ccc(S(=O)(=O)NC(CC(=O)O)C(=O)NO)cc1 (stereo not drawn) [Example 67] | 46.2 |
| CC#CCOc1ccc(S(=O)(=O)NCCC(=O)NO)cc1 [Example 69] | 48.5 |
| CC#CCOc1ccc(S(=O)(=O)NC(CCN)C(=O)NO)cc1 (stereo not drawn) [Example 70] | 21.1 |
| CC#CCOc1ccc(S(=O)(=O)NC(CSC(C)(C)C)C(=O)NO)cc1 (stereo not drawn) [Example 73] | 79 |
| CC#CCOc1ccc(S(=O)(=O)NC(CCCN)C(=O)NO)cc1 (stereo not drawn) [Example 76] | 29.7 |
| CC#CCOc1ccc(S(=O)(=O)NC(CC(C)C)C(=O)NO)cc1 (stereo not drawn) [Example 79] | 107 |
| CC#CCOc1ccc(S(=O)(=O)NC(CCC(=O)O)C(=O)NO)cc1 (stereo not drawn) [Example 86] | 37.5 |
| CC#CCOc1ccc(S(=O)(=O)NC(Cc2c[nH]cn2)C(=O)NO)cc1 (stereo not drawn) [Example 87] | 47.8 |
| CC#CCOc1ccc(S(=O)(=O)N2CC(OCc3ccccc3)CC2C(=O)NO)cc1 (stereo not drawn) [Example 88] | 8.4 |
| CC#CCOc1ccc(S(=O)(=O)N[C@H](C(=O)NO)[C@@H](C)CC)cc1 [Example 89] | 56.8 |
| CC#CCOc1ccc(S(=O)(=O)NC(Cc2ccccc2)C(=O)NO)cc1 (stereo not drawn) [Example 94] | 38.2 |
| CC#CCOc1ccc(S(=O)(=O)NC(C(=O)NO)C(C)C)cc1 (stereo not drawn) [Example 104] | 38.5 |

The next lines start with the values.

| % Inhibition at 1 uM (In Vitro Inhibition of TACE) [%] | SMILES |
| --- | --- |
| 22 | CC#CCOc1ccc(S(=O)(=O)NC(CSCNC(C)=O)C(=O)NO)cc1 (stereo not drawn) [Example 96] |
| 2.5 | CC#CCOc1ccc(S(=O)(=O)NC(CO)C(=O)NO)cc1 (stereo not drawn) [Example 98] |
| 28.5 | CC#CCOc1ccc(S(=O)(=O)NC(C(=O)NO)C(C)OCc2ccccc2)cc1 (stereo not drawn) [Example 99] |
| 15.4 | CC#CCOc1ccc(S(=O)(=O)NC(C(=O)NO)C(C)O)cc1 (stereo not drawn) [Example 100] |
| 30.2 | CC#CCOc1ccc(S(=O)(=O)NC(Cc2c[nH]c3ccccc23)C(=O)NO)cc1 (stereo not drawn) [Example 101] |
| 27.3 | CC#CCOc1ccc(S(=O)(=O)NC(Cc2ccc(O)cc2)C(=O)NO)cc1 (stereo not drawn) [Example 102] |
| 52.8 | CC#CCOc1ccc(S(=O)(=O)NC(Cc2ccc(OCc3ccccc3)cc2)C(=O)NO)cc1 (stereo not drawn) [Example 103] |

same assay, conditions: 1 uM; Table 15; read-out: % Inhibition at 1 uM (In Vitro Inhibition of TACE)

| SMILES | inhibition at 1 µM [%] |
| --- | --- |
| CC#CCOc1ccc(S(=O)(=O)NC(C)C(=O)NO)cc1 (stereo in doubt) [Example 62B, L-2-(4-but-2-ynyloxy-Benzenesulfonylamino)-N-hydroxy-propionamide] | 46.2 |
| CC#CCOc1ccc(S(=O)(=O)N[C@@H](C(=O)NO)C(C)C)cc1 [Example 85] | 102 |

same assay, conditions: IC 50 nM (In Vitro Inhibition of TACE), Table 15

| SMILES | IC50 [nM] |
| --- | --- |
| CC#CCOc1ccc(S(=O)(=O)N[C@@H](CCCNC(=N)N)C(=O)NO)cc1 [Example 64] | 420 ± 50 |
| CC#CCOc1ccc(S(=O)(=O)N[C@@H](CCCN=C(N)NS(=O)(=O)c2ccc(C)cc2)C(=O)NO)cc1 [Example 65] | 398 ± 136 |
| CC#CCOc1ccc(S(=O)(=O)N[C@@H](CC(=O)OC2CCCCC2)C(=O)NO)cc1 [Example 68] | 885 |
| CC#CCOc1ccc(S(=O)(=O)N[C@@H](CC2CCCCC2)C(=O)NO)cc1 [Example 71] | 402 ± 55 |
| CC#CCOc1ccc(S(=O)(=O)N[C@H](C(=O)NO)C2CCCCC2)cc1 [Example 72] | 550 |
| CC#CCOc1ccc(S(=O)(=O)N[C@@H](CSCc2ccc(OC)cc2)C(=O)NO)cc1 [Example 74] | 297 ± 119 |
| CC#CCOc1ccc(S(=O)(=O)N[C@H](CC(N)=O)C(=O)NO)cc1 [Example 75] | 387 |
| CC#CCOc1ccc(S(=O)(=O)N[C@H](CC2CCCCC2)C(=O)NO)cc1 [Example 77] | 6.9 ± 3.3 |
| CC#CCOc1ccc(S(=O)(=O)N[C@@H](C(=O)NO)C2CCCCC2)cc1 [Example 78] | 11.8 ± 4.6 |
| CC#CCOc1ccc(S(=O)(=O)N[C@H](CCSC)C(=O)NO)cc1 [Example 80] | 10.8 ± 3.7 |
| CC#CCOc1ccc(S(=O)(=O)N[C@H](Cc2ccccc2)C(=O)NO)cc1 [Example 81] | 4.99 ± 1.1 |
| CC#CCOc1ccc(S(=O)(=O)N2CCC[C@@H]2C(=O)NO)cc1 [Example 82] | 7.1 |
| CC#CCOc1ccc(S(=O)(=O)N[C@H](Cc2c[nH]c3ccccc23)C(=O)NO)cc1 [Example 83] | 45.1 ± 9.5 |
| CC#CCOc1ccc(S(=O)(=O)N[C@H](Cc2ccc(O)cc2)C(=O)NO)cc1 [Example 84] | 7.8 ± 0.4 |
| CC#CCOc1ccc(S(=O)(=O)N[C@@H](C(=O)NO)C(C)C)cc1 [Example 85] | 8.3 ± 2.7 |
| CC#CCOc1ccc(S(=O)(=O)N[C@@H](CC(C)C)C(=O)NO)cc1 [Example 90] | 462 ± 58 |
| CC#CCOc1ccc(S(=O)(=O)N[C@@H](CCCCN)C(=O)NO)cc1 [Example 92] | 490 ± 139 |
| CC#CCOc1ccc(S(=O)(=O)N[C@@H](CCCC)C(=O)NO)cc1 [Example 93] | 546 |

Now from value to compound:

| IC50 [nM] | SMILES |
| --- | --- |
| 120 | CC#CCOc1ccc(S(=O)(=O)N[C@H](C(=O)NO)c2ccccc2)cc1 [Example 95] |
| 283 ± 42 | CC#CCOc1ccc(S(=O)(=O)N[C@@H](COCc2ccccc2)C(=O)NO)cc1 [Example 97] |
| 29.3 | CC#CCOc1ccc(S(=O)(=O)N[C@H](CCCNC(=N)NS(=O)(=O)c2c(C)cc(OC)c(C)c2C)C(=O)NO)cc1 [Example 295] |
| 10.9 | CC#CCOc1ccc(S(=O)(=O)N[C@H](CCCNC(=N)N)C(=O)NO)cc1 [Example 296, (2R)-2-(4-But-2-ynyloxy-benzenesulfonylamino)-5-guanidino-pentanoic acid hydroxyamide] |
| 10.9 | CC#CCOc1ccc(S(=O)(=O)N[C@H](CCCNC(=N)NS(=O)(=O)c2ccc(C)cc2)C(=O)NO)cc1 [Example 297, (2R)-2-({[4-(2-Butynyloxy)phenyl]sulfonyl}amino)-N-hydroxy-5-[(imino{[(4-methylphenyl)sulfonyl]amino}methyl)amino]pentanamide] |
| 10.4 | CC#CCOc1ccc(S(=O)(=O)N[C@H](CSC(C)(C)C)C(=O)NO)cc1 [Example 299, (2S)-3-(tert-Butylthio)-2-({[4-(but-2-ynyloxy)phenyl]sulfonyl}amino)-N-hydroxypropanamide] |
| 11 | CC#CCOc1ccc(S(=O)(=O)N[C@H](CSCNC(C)=O)C(=O)NO)cc1 [Example 300, (2S)-3-{[(Acetylamino)methyl]thio}-2-({[4-(but-2-ynyloxy)phenyl]sulfonyl}amino)-N-hydroxypropanamide] |
| 24.6 | CC#CCOc1ccc(S(=O)(=O)N[C@H](CSCc2ccc(C)cc2)C(=O)NO)cc1 [Example 301, (2S)-2-({[4-(But-2-ynyloxy)phenyl]sulfonyl}amino)-N-hydroxy-3-[(4-methylbenzyl)thio]propanamide] |
| 27.4 | CC#CCOc1ccc(S(=O)(=O)N[C@H](CCC(N)=O)C(=O)NO)cc1 [Example 303, (2R)-2-({[4-(But-2-ynyloxy)phenyl]sulfonyl}amino)-N-hydroxypentanediamide] |
| 28.9 | CC#CCOc1ccc(S(=O)(=O)N[C@H](CCC(=O)O)C(=O)NO)cc1 [Example 304, (4R)-4-({[4-(But-2-ynyloxy)phenyl]sulfonyl}amino)-5-(hydroxyamino)-5-oxopentanoic acid] |
| 13.4 | CC#CCOc1ccc(S(=O)(=O)N[C@H](CCc2ccccc2)C(=O)NO)cc1 [Example 305, (2R)-2-({[4-(But-2-ynyloxy)phenyl]sulfonyl}amino)-N-hydroxy-4-phenylbutanamide] |
| 8.7 | CC#CCOc1ccc(S(=O)(=O)N[C@H](Cc2cnc[nH]2)C(=O)NO)cc1 [Example 306, (2R)-2-({[4-(But-2-ynyloxy)phenyl]sulfonyl}amino)-N-hydroxy-3-(1H-imidazol-5-yl)propanamide] |
| 29.4 | CC#CCOc1ccc(S(=O)(=O)N2C[C@@H](O)C[C@@H]2C(=O)NO)cc1 [Example 307, (2R,4S)-1-{[4-(But-2-ynyloxy)phenyl]sulfonyl}-N,4-dihydroxypyrrolidine-2-carboxamide] |
| 29.5 | CC#CCOc1ccc(S(=O)(=O)N[C@H](CCCCN)C(=O)NO)cc1 [Example 308, (2R)-6-Amino-2-({[4-(but-2-ynyloxy)phenyl]sulfonyl}amino)-N-hydroxyhexanamide] |
| 11.4 | CC#CCOc1ccc(S(=O)(=O)N[C@H](CCCCNC(=O)OCc2ccccc2)C(=O)NO)cc1 [Example 309, Benzyl(5R)-5-({[4-(but-2-ynyloxy)phenyl]sulfonyl}amino)-6-(hydroxyamino)-6-oxohexylcarbamate] |
| 27.9 | CC#CCOc1ccc(S(=O)(=O)N[C@H](Cc2cccc3ccccc23)C(=O)NO)cc1 [Example 310, (2R)-2-({[4-(But-2-ynyloxy)phenyl]sulfonyl}amino)-N-hydroxy-3-(1-naphthyl)propanamide] |
| 15.7 | CC#CCOc1ccc(S(=O)(=O)N[C@H](Cc2ccc3ccccc3c2)C(=O)NO)cc1 [Example 311, (2R)-2-({[4-(But-2-ynyloxy)phenyl]sulfonyl}amino)-N-hydroxy-3-(2-naphthyl)propanamide] |
| 4.7 | CC#CCOc1ccc(S(=O)(=O)N[C@H](CCCC)C(=O)NO)cc1 [Example 312, (2R)-2-({[4-(But-2-ynyloxy)phenyl]sulfonyl}amino)-N-hydroxyhexanamide] |
| 6.3 | CC#CCOc1ccc(S(=O)(=O)N[C@H](CCC)C(=O)NO)cc1 [Example 313, (2R)-2-({[4-(But-2-ynyloxy)phenyl]sulfonyl}amino)-N-hydroxypentanamide] |

same assay, conditions: read-out: IC 50 nM (In Vitro Inhibition of TACE); Table 15

| SMILES | IC50 [nM] |
| --- | --- |
| CC#CCOc1ccc(S(=O)(=O)NC(CSC(C)(C)C)C(=O)NO)cc1 (stereo not drawn) [Example 73] | 451 ± 31 |
| CC#CCOc1ccc(S(=O)(=O)NC(CC(C)C)C(=O)NO)cc1 (stereo not drawn) [Example 79] | 5.7 ± 2.5 |

same assay, conditions: read-out: TACE IC50

| SMILES | IC50 [nM] |
| --- | --- |
| CC#CCOc1ccc(S(=O)(=O)N(C)CC(=O)NO)cc1 [Example 17, 2-[(4-but-2-ynyloxy-Benzenesulfonyl)-methyl-amino]-N-hydroxy-acetamide] | 6.8 |
